This series can be described thus: physchem. The class given is physicochemical. The following applies: 25 °C, water. The text has this: For instance, it has been observed that PQQ can be difficult to dissolve in liquid mixtures. […] In most cases, rather than dissolving, PQQ is initially suspended within a liquid solution, but the PQQ later settles out of this suspension. Once settled, the PQQ generally becomes ineffective and is inaccessible for a plant to uptake. For example, the PQQ quickly settles out of suspension onto the bottom of any storage container which in turn inhibits the spraying or otherwise applying the PQQ onto the plants and/or soil. This inability for PQQ to remain dissolved and/or suspended is exacerbated when out in commercial agricultural fields, because the solution is typically kept in large drums or other large containers that are difficult to agitate or otherwise move so as to maintain the suspension. Moreover, there is currently no commercially practical way to dissolve PQQ in a liquid mixture to mass produce a product useful in agricultural and/or horticultural situations (i.e., growing of ornamental plants).

Structures are written as SMILES. Converted amounts (≈) assume the structure as drawn.

Among the data in patent publication US20240215583A1, “PLANT BIOLOGIC INCLUDING PYRROLOQUINOLINE QUINONE (PQQ)” (Dakota Bio LLC, priority 2022, published 2024) are solubility values, retold here.

In general, solubility refers to the concentration that dissolves in the medium under given conditions. High values mean much dissolved substance, low ones little dissolved substance. With `O=C(O)c1cc(C(=O)O)c2c(n1)C(=O)C(=O)c1cc(C(=O)O)[nH]c1-2` [PQQ, 4,5-Dioxo-4,5-dihydro-1H-pyrrolo[2,3-f]quinoline-2,7,9-tricarboxylic acid], the solubility is approximately 212 µg/mL (≈ 641 µM).
